Results as given in patent publication US20260049084A1, “ENPP1 MODULATORS AND PRODUCTS AND USES THEREOF” (Gossamer Bio Services, Inc., priority 2022, published 2026).

Tests used:
[1] = target: Recombinant human ENPP1 protein (Homo sapiens (Human), UniProt P22413); experiment: ENPP1 cGAMP Biochemical Assay; settings: 0.5 nM ENPP1, 1000 nM 2′3′-cGAMP substrate, TR-FRET
Description: ENPP1 cGAMP Biochemical Assay
Compounds were added to 384 well Proxiplate (PerkinElmer, Waltham MA) at 100 nl/well from DMSO stocks using Echo (Labcyte, San Jose CA). Recombinant human ENPP1 protein (R&D Systems, Minneapolis MN) was prepared in assay buffer (50 mM Tris pH7.5, 1 mM TCEP pH7.0, 2 mM MgCl2 and 0.005% Tween20) and added at 10 μl/well. The plate was sealed, centrifuged at 1000 rpm for 1 minute and incubated at room temperature for 30 minutes before 5 μl substrate 2′3′-cGAMP (R&D Systems, Minneapolis MN) in assay buffer was added to each well to a final concentration of 0.5 nM ENPP1 and 1000 nM 2′3′-cGAMP. The plate was sealed and centrifuged at 1000 rpm for 1 minute again. After incubation at 25° C. for 60 minutes, Terbium labelled AMP/GMP antibody and AMP/GMP HiLyte647 Tracer (BellBrook Labs, Fitchburg WI) in detection buffer (50 mM Tris pH7.5, 20 mM EDTA and 0.1% Prionex) were added to the reaction mixture to a final concentration of 2 nM (5 μl/well). The assay plate was incubated at room temperature for 120 minutes. TR-FRET signal was detected using Envision (PerkinElmer, Waltham MA).

[2] = target: Recombinant human ENPP3 protein (Homo sapiens (Human), UniProt O14638); experiment: ENPP3 cGAMP Biochemical Assay; settings: 70.5 nM ENPP3, 120 μM 2′3′-cGAMP substrate, TR-FRET
Description: ENPP3 cGAMP Biochemical Assay
Compounds were added to 384 well Proxiplate (PerkinElmer, Waltham MA) at 100 nl/well from DMSO stocks using Echo (Labcyte, San Jose CA). Recombinant human ENPP3 protein (Acro Biosystems, Newwark DE) was prepared in assay buffer (50 mM Tris pH7.5, 1 mM TCEP pH7.0, 2 mM MgCl2, 2 mM CaCl2), 2 mM ZnCl2 and 0.005% Tween20) and added at 2 μl/well. The plate was sealed, centrifuged at 1000 rpm for 1 minute and incubated at room temperature for 30 minutes before 2 μl substrate 2′3′-cGAMP (R&D Systems, Minneapolis MN) in assay buffer was added to each well to a final concentration of 70.5 nM ENPP3 and 120 μM 2′3′-cGAMP. The plate was sealed and centrifuged at 1000 rpm for 1 minute again. After incubation at 25° C. for 60 minutes, Terbium labelled AMP/GMP antibody and AMP/GMP HiLyte647 Tracer (BellBrook Labs, Fitchburg WI) in detection buffer (50 mM Tris pH7.5, 20 mM EDTA and 0.1% Prionex) were added to the reaction mixture to a final concentration of 475 nM and 3 nM respectively. The assay plate was incubated at room temperature for 120 minutes. TR-FRET signal was detected using Envision (PerkinElmer, Waltham MA).

Sequence of Recombinant human ENPP3 protein (O14638 whole entry): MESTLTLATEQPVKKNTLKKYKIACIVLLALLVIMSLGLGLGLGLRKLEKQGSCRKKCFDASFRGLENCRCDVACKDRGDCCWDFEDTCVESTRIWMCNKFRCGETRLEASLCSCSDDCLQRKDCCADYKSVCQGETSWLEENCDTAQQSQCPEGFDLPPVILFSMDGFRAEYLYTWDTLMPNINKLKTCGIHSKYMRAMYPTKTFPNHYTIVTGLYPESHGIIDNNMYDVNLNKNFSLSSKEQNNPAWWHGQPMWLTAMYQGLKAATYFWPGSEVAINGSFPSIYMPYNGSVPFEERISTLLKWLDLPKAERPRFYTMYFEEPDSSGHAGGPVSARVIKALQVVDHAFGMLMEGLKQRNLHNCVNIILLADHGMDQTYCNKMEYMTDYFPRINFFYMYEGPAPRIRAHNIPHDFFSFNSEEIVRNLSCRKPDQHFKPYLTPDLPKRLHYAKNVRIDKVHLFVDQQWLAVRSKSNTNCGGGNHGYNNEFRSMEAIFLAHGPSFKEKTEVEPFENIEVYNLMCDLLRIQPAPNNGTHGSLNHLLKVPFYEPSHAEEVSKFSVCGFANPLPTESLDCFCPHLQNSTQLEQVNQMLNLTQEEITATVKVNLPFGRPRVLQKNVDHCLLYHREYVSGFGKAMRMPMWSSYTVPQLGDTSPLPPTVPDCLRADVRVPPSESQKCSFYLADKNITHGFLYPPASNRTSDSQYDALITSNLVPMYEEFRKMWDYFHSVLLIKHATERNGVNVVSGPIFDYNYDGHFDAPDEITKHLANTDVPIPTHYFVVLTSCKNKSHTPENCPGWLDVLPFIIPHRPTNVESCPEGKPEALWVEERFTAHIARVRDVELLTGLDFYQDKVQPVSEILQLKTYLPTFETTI
Sequence of Recombinant human ENPP1 protein (P22413 whole entry): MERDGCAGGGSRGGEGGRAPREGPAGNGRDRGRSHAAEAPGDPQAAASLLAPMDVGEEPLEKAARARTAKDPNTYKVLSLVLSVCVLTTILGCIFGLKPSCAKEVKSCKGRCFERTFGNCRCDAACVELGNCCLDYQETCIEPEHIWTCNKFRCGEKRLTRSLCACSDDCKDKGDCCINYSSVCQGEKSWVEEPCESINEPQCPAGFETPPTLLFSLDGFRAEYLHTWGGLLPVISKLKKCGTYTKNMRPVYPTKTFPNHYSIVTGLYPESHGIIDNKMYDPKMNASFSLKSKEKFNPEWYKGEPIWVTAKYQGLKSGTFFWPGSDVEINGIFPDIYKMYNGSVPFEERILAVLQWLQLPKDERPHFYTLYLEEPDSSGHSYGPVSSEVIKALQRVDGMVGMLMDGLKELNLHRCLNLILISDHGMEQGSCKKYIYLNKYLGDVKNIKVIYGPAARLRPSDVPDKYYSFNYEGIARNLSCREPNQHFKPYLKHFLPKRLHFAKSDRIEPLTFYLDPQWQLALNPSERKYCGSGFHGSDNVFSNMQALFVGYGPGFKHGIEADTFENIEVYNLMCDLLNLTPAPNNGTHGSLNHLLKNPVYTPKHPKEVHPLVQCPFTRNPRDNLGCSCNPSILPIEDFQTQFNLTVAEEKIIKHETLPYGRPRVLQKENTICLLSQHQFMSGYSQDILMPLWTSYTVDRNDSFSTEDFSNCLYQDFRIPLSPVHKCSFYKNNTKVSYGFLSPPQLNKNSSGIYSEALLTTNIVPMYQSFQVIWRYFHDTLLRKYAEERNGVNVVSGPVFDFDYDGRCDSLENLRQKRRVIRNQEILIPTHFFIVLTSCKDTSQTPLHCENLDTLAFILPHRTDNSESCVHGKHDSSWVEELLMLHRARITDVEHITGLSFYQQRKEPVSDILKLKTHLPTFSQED

SMILES | IC50 [1] | IC50 [2]
CCn1ncc2c(Nc3ccc(S(N)(=O)=NC)cc3)ccnc21 (stereo not drawn) [Compound 5B, 4-((1-ethyl-1H-pyrazolo[3,4-b]pyridin-4-yl)amino)-N′-methylbenzenesulfonimidamide] | 0.01 to 0.1 µM | ≥ 1 µM
CCn1nc(Cl)c2c(Nc3ccc(S(=N)(N)=O)cc3)ccnc21 (stereo not drawn) [Compound 5C, 4-((3-chloro-1-ethyl-1H-pyrazolo[3,4-b]pyridin-4-yl)amino)benzenesulfonimidamide] | 0.01 to 0.1 µM | 0.1 to 1 µM
CCn1nc(Cl)c2c(Nc3ccc(S(N)(=O)=NC)cc3)ccnc21 (stereo not drawn) [Compound 5D, 4-((3-chloro-1-ethyl-1H-pyrazolo[3,4-b]pyridin-4-yl)amino)-N′-methylbenzenesulfonimidamide] | < 0.01 µM | 0.1 to 1 µM
CCN=S(N)(=O)c1ccc(Nc2ccnc3c2c(Cl)nn3CC)cc1 (stereo not drawn) [Compound 5E, 4-((3-chloro-1-ethyl-1H-pyrazolo[3,4-b]pyridin-4-yl)amino)-N′-ethylbenzenesulfonimidamide] | < 0.01 µM | 0.1 to 1 µM
CCn1nc(Cl)c2c(Nc3ccc(S(N)(=O)=NCC4CC4)cc3)ccnc21 (stereo not drawn) [Compound 5F, 4-((3-chloro-1-ethyl-1H-pyrazolo[3,4-b]pyridin-4-yl)amino)-N′-(cyclopropylmethyl)benzene sulfonimidamide] | < 0.01 µM | 0.1 to 1 µM
CCn1nc(Cl)c2c(Nc3ccc(S(N)(=O)=NC#N)cc3)ccnc21 (stereo not drawn) [Compound 5G, 4-((3-chloro-1-ethyl-1H-pyrazolo[3,4-b]pyridin-4-yl)amino)-N′-cyanobenzenesulfonimidamide] | 0.01 to 0.1 µM | ≥ 1 µM
CCn1nc(Cl)c2c(Nc3ccc(S(N)(=O)=NC(C)C)cc3)ccnc21 (stereo not drawn) [Compound 5H, 4-((3-chloro-1-ethyl-1H-pyrazolo[3,4-b]pyridin-4-yl)amino)-N′-isopropylbenzenesulfonimidamide] | < 0.01 µM | 0.1 to 1 µM
CCn1nc(Cl)c2c(Nc3ccc(S(N)(=O)=NC4CC4)cc3)ccnc21 (stereo not drawn) [Compound 5I, 4-((3-chloro-1-ethyl-1H-pyrazolo[3,4-b]pyridin-4-yl)amino)-N′-cyclopropylbenzenesulfonimidamide] | < 0.01 µM | ≥ 1 µM
C#CCn1nc(Cl)c2c(NCc3ccc([S@](C)(=N)=O)cc3)ccnc21 [Compound 6A, (R)-(4-(((3-chloro-1-(prop-2-yn-1-yl)-1H-pyrazolo[3,4-b]pyridin-4-yl)amino)methyl)phenyl)(imino)(methyl)-λ^6-sulfanone] | 0.01 to 0.1 µM | ≥ 1 µM
C#CCn1nc(Cl)c2c(NCc3ccc([S@@](C)(=N)=O)cc3)ccnc21 [Compound 6B, (S)-(4-(((3-chloro-1-(prop-2-yn-1-yl)-1H-pyrazolo[3,4-b]pyridin-4-yl)amino)methyl)phenyl)(imino)(methyl)-λ^6-sulfanone] | < 0.01 µM | 0.01 to 0.1 µM
CCn1ncc2c(OCc3ccc(S(N)(=O)=NC)cc3)ccnc21 (stereo not drawn) [Compound 7A, 4-(((1-ethyl-1H-pyrazolo[3,4-b]pyridin-4-yl)oxy)methyl)-N′-methylbenzenesulfonimidamide] | 0.1 to 1 µM | ≥ 1 µM
CS(=N)(=O)c1ccc(COc2ccnc3c2c(Cl)nn3CC#N)cc1 (stereo not drawn) [Compound 8A, 2-(3-chloro-4-((4-(S-methylsulfonimidoyl)benzyl)oxy)-1H-pyrazolo[3,4-b]pyridin-1-yl) acetonitrile] | < 0.01 µM | 0.1 to 1 µM

Next, values leading:

IC50 [1] | IC50 [2] | SMILES
< 0.01 µM | 0.01 to 0.1 µM | C#CCn1nc(Cl)c2c(N(C)Cc3ccc(S(C)(=N)=O)cc3)ccnc21 (stereo not drawn) [Compound 9A, (4-(((3-chloro-1-(prop-2-yn-1-yl)-1H-pyrazolo [3,4-b]pyridin-4-yl)(methyl)amino)methyl)phenyl)(imino)(methyl)-λ^6-sulfanone]
< 0.01 µM | 0.01 to 0.1 µM | C#CCn1nc(Cl)c2c(N(C)Cc3ccc([S@](C)(=N)=O)cc3)ccnc21 [Compound 9B, (R)-(4-(((3-chloro-1-(prop-2-yn-1-yl)-1H-pyrazolo[3,4-b]pyridin-4-yl)(methyl)amino)methyl)phenyl)(imino)(methyl)-λ^6-sulfanone]
< 0.01 µM | ≥ 1 µM | C#CCn1nc(Cl)c2c(N(C)Cc3ccc([S@@](C)(=N)=O)cc3)ccnc21 [Compound 9C, (S)-(4-(((3-chloro-1-(prop-2-yn-1-yl)-1H-pyrazolo[3,4-b]pyridin-4-yl)(methyl)amino)methyl)phenyl)(imino)(methyl)-λ^6-sulfanone]
< 0.01 µM | 0.01 to 0.1 µM | C#CCn1nc(Cl)c2c(NCc3ccc(S(C)(=N)=O)cc3)ccnc21 (stereo not drawn) [Compound 9D, (4-(((3-chloro-1-(prop-2-yn-1-yl)-1H-pyrazolo[3,4-b]pyridin-4-yl)amino)methyl)phenyl)(imino)(methyl)-λ6-sulfanone]
≥ 1 µM | ≥ 1 µM | CCn1ncc2c(NCc3ccc(S(C)(=N)=O)cc3)ccnc21 (stereo not drawn) [Compound 9E, (4-(((1-ethyl-1H-pyrazolo[3,4-b]pyridin-4-yl)amino)methyl)phenyl)(imino)(methyl)-λ6-sulfanone]
< 0.01 µM | 0.01 to 0.1 µM | CS(=N)(=O)c1ccc(CNc2ccnc3c2c(Cl)nn3CC#N)cc1 (stereo not drawn) [Compound 9F, 2-(3-chloro-4-((4-(S-methylsulfonimidoyl)benzyl)amino)-1H-pyrazolo[3,4-b]pyridin-1-yl)acetonitrile]
0.1 to 1 µM | ≥ 1 µM | C[S@](=N)(=O)c1ccc(CNc2ccnc3c2c(Cl)nn3CC#N)cc1 [Compound 9G, (S)-2-(3-chloro-4-((4-(S-methylsulfonimidoyl)benzyl)amino)-1H-pyrazolo[3,4-b]pyridin-1-yl) acetonitrile]
< 0.01 µM | 0.01 to 0.1 µM | C[S@@](=N)(=O)c1ccc(CNc2ccnc3c2c(Cl)nn3CC#N)cc1 [Compound 9H, (R)-2-(3-chloro-4-((4-(S-methylsulfonimidoyl)benzyl)amino)-1H-pyrazolo[3,4-b]pyridin-1-yl)acetonitrile]
< 0.01 µM | 0.1 to 1 µM | CCn1nc(Cl)c2c(NCc3ccc(S(=N)(=O)CCOC)cc3)ccnc21 (stereo not drawn) [Compound 9I, (4-(((3-chloro-1-ethyl-1H-pyrazolo[3,4-b]pyridin-4-yl)amino)methyl)phenyl)(imino)(2-methoxyethyl)-λ6-sulfanone]
< 0.01 µM | 0.1 to 1 µM | CCn1nc(Cl)c2c(NCc3ccc(S(=N)(=O)CC4CC4)cc3)ccnc21 (stereo not drawn) [Compound 9J, (4-(((3-chloro-1-ethyl-1H-pyrazolo[3,4-b]pyridin-4-yl)amino)methyl)phenyl) (cyclopropylmethyl)(imino)-λ^6-sulfanone]
< 0.01 µM | 0.1 to 1 µM | CCn1nc(Cl)c2c(NCc3ccc(S(=N)(=O)CC)cc3)ccnc21 (stereo not drawn) [Compound 9K, (4-(((3-chloro-1-ethyl-1H-pyrazolo[3,4-b]pyridine-4-yl)amino)methyl)phenyl)(ethyl) (imino)-λ^6-sulfanone]
< 0.01 µM | 0.1 to 1 µM | CCn1nc(Cl)c2c(NCc3ccc([S@](C)(=N)=O)cc3)ccnc21 [Compound 9L, (R)-(4-(((3-chloro-1-ethyl-1H-pyrazolo[3,4-b]pyridin-4-yl)amino)methyl)phenyl)(imino) (methyl)-λ^6-sulfanone]
0.01 to 0.1 µM | ≥ 1 µM | CCn1nc(Cl)c2c(NCc3ccc([S@@](C)(=N)=O)cc3)ccnc21 [Compound 9M, (S)-(4-(((3-chloro-1-ethyl-1H-pyrazolo[3,4-b]pyridin-4-yl)amino)methyl)phenyl)(imino) (methyl)-λ^6-sulfanone]
< 0.01 µM | ≥ 1 µM | CCn1nc(Cl)c2c(NCc3ccc([S@](=N)(=O)CCOC)cc3)ccnc21 [Compound 9N, (R)-(4-(((3-chloro-1-ethyl-1H-pyrazolo [3,4-b]pyridine-4-yl)amino)methyl)phenyl)(imino)(2-methoxyethyl)-λ^6-sulfanone]
0.1 to 1 µM | ≥ 1 µM | C#CCn1nc(Cl)c2c(NCc3ccc(S(C)(=O)=NC)cc3)ccnc21 (stereo not drawn) [Compound 10A, (4-(((3-chloro-1-(prop-2-yn-1-yl)-1H-pyrazolo[3,4-b]pyridin-4-yl)amino)methyl)phenyl)(methyl)(methylimino)-λ6-sulfanone]
